Settings: 10 mg/kg adriamycin, intravenous (tail vein) on Days 8, 10 and 12; compared with Vehicle; FIG. 1(A)
Description: The presence of weight loss as a side effect of adriamycin encapsulated in the liposome was assessed. […] Each of the drugs was intravenously (tail vein) administered to each mouse group on Days 8, 10 and 12 following the sensitization day (Day 0) (total of three doses). […] The 10 mg/kg (weight) adriamycin is a dose that gives medicinal benefits as a cancer chemotherapeutic agent.
Meanwhile, weight loss as a side effect was also assessed.
Each of the drugs was intravenously (tail vein) administered to each mouse group on Days 8, 10 and 12 following the sensitization day (Day 0) (total of three doses).

Q: For `COc1cccc2c1C(=O)c1c(O)c3c(c(O)c1C2=O)C[C@@](O)(C(=O)CO)C[C@@H]3O[C@H]1C[C@H](N)[C@H](O)[C@H](C)O1` [adriamycin], which “weight loss as a side effect” value is on record?
A: obvious weight loss
